Data from patent publication US10441540B2, “Liposomal lupeol acetate and the use thereof in preparing drugs for rheumatoid arthritis” (NATIONAL YANG-MING UNIVERSITY, priority 2014, dated 2019).

Legend:
rheumatoid arthritis = conditions: US Patent Application no. 20120177754; 100 mg/kg, 12 days needed in mice; cited from earlier work
IL-10 = IL-10 in mouse hind leg proteins, Western blotting; conditions: 100 mg/kg LA or 50 mg/kg Lipo-LA, day 32
Protocol: (§4) The mice were sacrificed by cervical dislocation on the 32nd day of the animal experiment. The whole leg of mouse was removed, and the leg tissue was ground by adding an appropriate amount of lysis buffer (tissue protein extraction reagent, T-PER, Pierce Protein Biology Products, IL, USA), centrifuged at 15,000 rpm for 20 minutes, and the supernatant is taken as the sample for each group.
(§5) Meanwhile, we also use Western blotting to observe the proteins extracted from mouse hind legs, and observe the expression level of immunosuppression-related proteins TGF-β and IL-10 secreted from Treg cells.

TGF-β = TGF-β in mouse hind leg proteins, Western blotting; conditions: 100 mg/kg LA or 50 mg/kg Lipo-LA, day 32
Protocol: as §4, §5

[1] = test system: collagen-induced arthritis (CIA) in DBA/1J mice; experiment: Collagen-induced arthritis (CIA) animal model; conditions: oral daily
TNF-α = experiment: Immunohistochemistry of TNF-α in leg joints of CIA mice; type: in vivo, mouse; conditions: 100 mg/kg LA or 50 mg/kg Lipo-LA, day 43, vs RA group
From the text: (§1) In FIG. 8A, mice were sacrificed at the end of the animal experiment (day 43), and the legs was removed for the immunohistochemistry (IHC) of TNF-α and IL-1β and H&E staining. The arrows in H&E images indicate the position of articular cavity. There is significant accumulation of TNF-α and IL-1β appeared in the RA group.
(§2) Observing the suppressive effects of Lipo-LA on joint inflammation using immunohistochemistry (IHC). […] The legs of mouse were removed and subjected to paraffin embedding and sectioning. The sections were stained with anti-TNF-α and anti-IL-1β antibodies, respectively to assess the distribution of inflammatory cytokines.

[2] = test system: inflammatory condition induced by carrageenan; conditions: Lucetti D L et al. J Inflamm 2010; cited from earlier work
IL-1β = experiment: Immunohistochemistry of IL-1β in leg joints of CIA mice; type: in vivo, mouse; conditions: 100 mg/kg LA or 50 mg/kg Lipo-LA, day 43, vs RA group
From the text: as §1, §2

osteoclasts = experiment: TRAP staining of RANKL-induced osteoclast differentiation from macrophage; type: cell-based; conditions: 100 ng/ml RANKL, five days
From the text: (§3) The cells were stained with tartrate-resistant acid phosphatase (TRAP) and observed by microscopy to assure the differentiation of osteoclast after the cultivation of five days (Bar=200 μm).
To evaluate the effects of the liposomal lupeol acetate (Lipo-LA) of present invention on the suppression of rheumatoid arthritis, we firstly analyze the differentiation of osteoclasts from certain cells using the tartrate-resistant acid phosphatase (TRAP) staining method. The TRAP staining is used to detect the internal acid phosphatase activity of leukocytes in a blood, bone or tissue sample. Because osteoclasts contain acid phosphatase, we can use this staining method to determine the formation of osteoclast cells.
After removing the supernatant of culture, the cells are rinsed with PBS for two times, and then fixed with 3.7% paraformaldehyde for 1 hour. The fixed cells are washed with PBS. The Acid Phophatase Leukocyte kit (TRAP stain, Cat. 387-A, Sigma-Aldrich, USA) is used in the TRAP staining and the method is briefly described as follow. Before staining, the temperature of ddH2O used for adjuvant preparation is confirmed to be 37° C. The Fast Garnet GBC base and sodium nitrite solution at equal volumes are uniformly mixed for 30 seconds and incubated at room temperature for at least two minutes. […]

NFATc1 = NFATc1 expression by real-time Q-PCR under RANKL induction; type: cell-based; conditions: NF-κB inhibitor 5 nM
From the text: as §3
Next, the real time Q-PCR is used for analyzing the change of NFATc1 (nuclear factor of activated T cell, the major factor of osteoclast proliferation and known as cytoplasmic 1) under the RANKL induction and drug treatments.

RAW 264.7 cells = experiment: MTT cell viability of RAW 264.7 cells; type: cell-based; conditions: 2.5-10 nM, 24 hours
Protocol: RAW 264.7 cells (a mouse leukaemic monocyte macrophage cell line) were treated with solutions containing liposomal lupeol acetate (10 ? 20 ? 40 ? 80 μM) and NF-kB inhibitor QNZ (2.5 ? 5 ? 7.5 ? 10 nM), respectively, for 24 hours, then the viability was analyzed by MTT method, comparing to the results of the control group.
5×10^4 RAW264.7 cells/well were seeded in 96-well culture dishes, and treated with directed concentration of liposomal lupeol acetate and QNZ for 24 hours after the 24-hr attachment. After removing the culture medium, 100 μl of 0.5 mg/ml MTT solution was added, and the cells were incubated at 37° C. for 4 hours. The mitochondrial enzyme (succinate dehydrogenase, SDH) in living cells will react with tetrazolium bromide in the MTT solution and form formazan blue-purple crystals. The MTT solution was removed and 200 μl DMSO was added to dissolve the blue-purple crystal, and then the O.D. (optical density) value was read under wavelength of 570 nm on an ELISA reader (TECAN Sunrise, USA). The relative cell viability is calculated by comparing the absorbance value of drug treated group with that of the control group (setting the value of control group as 100%).

[3] = 100 mg/kg LA or 50 mg/kg Lipo-LA, vs RA group

Molecule: Lupeol acetate [LA]
- inhibiting inflammation and treatment of rheumatoid arthritis (rheumatoid arthritis): significant therapeutic effect
- level of IL-10 (IL-10): rising trend
- level of TGF-β (TGF-β): rising trend
- arthritis scores (highest 16 points per mouse) [1, 3]: significantly less scores
- foot swelling [1, 3]: significantly reduced
- incidence of arthritis [1, 3]: decreased incidence percentages
- toxic effects judged by changes in body weight of mice ([1]; 100 mg/kg LA): no toxic effects
- TNF-α staining (IHC) in joint (TNF-α): improvements
- inflammatory condition induced by carrageenan in mice [2]: effectively mitigate
- IL-1β staining (IHC) in joint (IL-1β): improvements
- differentiation of osteoclast from macrophage (TRAP staining) (osteoclasts): inhibitory effects

Molecule: Nc1ccc2ncnc(NCCc3ccc(Oc4ccccc4)cc3)c2c1 [QNZ]
- expression of NFATc1 (NFATc1): reduces
- cell death of RAW264.7 cells (cell viability, MTT) (RAW 264.7 cells): does not cause significant cell death
